Measurements published in patent US20240307426A1, “USE OF SGLT-2 INHIBITORS FOR THE PREVENTION AND/OR TREATMENT OF RENAL DISEASES IN NON-HUMAN MAMMALS” (BOEHRINGER INGELHEIM VETMEDICA GMBH, priority 2021, published 2024).

Test system: cats with chronic kidney disease (CKD)
Experiment: Exploratory clinical field trial in cats with CKD (Example 3)
Type: in vivo, cat
Parameters: key to IRIS Stage (based on serum creatinine level) / IRIS Stage (based on creatinine level) / IRIS Stage (based on the creatinine level): IRIS CKD stage assigned from serum creatinine (IRIS 2019)
Conditions: for Phosphorus: ref 0.8-2.2; for Serum creatinine: ref 0.9-2.3; for Potassium: ref 3.3-5.8; for Hematocrit: ref 28.2-52.7; for UPC: ref <0.33
Procedure: The clinical trial was conducted at three animal clinics. Overall, 9 cats with chronic kidney disease (CKD) were included in the study and treated once daily orally with 1 mg/kg bodyweight velagliflozin for up to 150 days (depending on the time of enrollment).
Diagnosis of CKD was based on two measurements of serum creatinine concentration at least 2 weeks apart from each other (historical value and screening, and value at screening in fasted cats), as recommended by the International Renal Interest Society (IRIS 2019). In order to qualify for enrollment, serum creatinine levels needed to be ≥2.2 mg/dL, but <5.0 mg/dL.
Disease staging throughout the study was performed based on serum creatinine levels in accordance with the IRIS CKD staging (IRIS 2019).
All other cats were treated for >90 days had at least data for two time points under treatment available and were therefore evaluated. Progression of the disease, as well as IRIS staging in this study was based on the most reliable biomarker: serum creatinine.

[1] = case 200-006, Visit 2 (Day 90), 1 mg/kg po once daily
[2] = case 200-006, Visit 3 (Day 121), 1 mg/kg po once daily
[3] = case 200-006, screening visit (before treatment)
[4] = case 200-007, 1 mg/kg po once daily
[5] = case 200-007, 1 mg/kg po once daily, whole study
[6] = case 200-007, Visit 1 (Day 30), 1 mg/kg po once daily
[7] = case 200-007, Visit 2 (Day 90), 1 mg/kg po once daily
[8] = case 200-007, Visit 3 (Day 114), 1 mg/kg po once daily
[9] = case 200-007, screening visit (before treatment)
[10] = case 300-003 (IRIS stage 2), removed early on day 30
[11] = case 300-008, 1 mg/kg po once daily
[12] = case 300-008, 1 mg/kg po once daily, whole study
[13] = case 300-008, Visit 1 (Day 30), 1 mg/kg po once daily

SMILES: N#Cc1ccc([C@@H]2O[C@H](CO)[C@@H](O)[C@H](O)[C@H]2O)cc1Cc1ccc(C2CC2)cc1 [velagliflozin, Velagliflozin]
- Systolic blood pressure [1]: 155.3 mmHg
- Phosphorus [1]: 1.3 mmol/L
- Serum creatinine [1]: 2.7 mg/dL
- Potassium [1]: 4.4 mmol/L
- Hematocrit [1]: 37.3%
- UPC [1]: 0.2
- BUN [2]: 42 mg/dL
- IRIS Stage (based on the creatinine level) [2]: 2
- Owner assessment - quality of life [2]: good
- Owner assessment of the appetite [2]: normal
- Owner assessment of the drinking behavior [2]: excessive
- Systolic blood pressure [2]: 140.0 mmHg
- Phosphorus [2]: 2.0 mmol/L
- Serum creatinine [2]: 2.8 mg/dL
- Potassium [2]: 4.3 mmol/L
- Hematocrit [2]: 35.5%
- BUN [3]: 34 mg/dL
- IRIS Stage (based on the creatinine level) [3]: 2
- Owner assessment - quality of life [3]: good
- Owner assessment of the appetite [3]: poor
- Owner assessment of the drinking behavior [3]: excessive
- Systolic blood pressure [3]: 141.3 mmHg
- Phosphorus [3]: 1.3 mmol/L
- Serum creatinine [3]: 2.6 mg/dL
- Potassium [3]: 3.8 mmol/L
- Hematocrit [3]: 37.9%
- UPC [3]: 0.1
- adverse events [4]: three occasions of vomitus, two occasions of inappetence and one occasion of mild anaemia, leukocytopenia
- expected glucosuric effect [4]: confirmed
- Serum creatinine levels (course) [5]: increased mildly
- Serum potassium levels (course) [5]: remained stable within the reference range
- Total urine protein and UPC [5]: mildly increased
- drinking behavior (course) [5]: improved to normal
- quality of life (course) [5]: changed from very good to good
- the cat's condition [5]: stable
- BUN [6]: 40 mg/dL
- IRIS Stage (based on the creatinine level) [6]: 3
- Owner assessment - quality of life [6]: very good
- Owner assessment of the appetite [6]: normal
- Owner assessment of the drinking behavior [6]: normal
- Systolic blood pressure [6]: 122.7 mmHg
- Phosphorus [6]: 1.0 mmol/L
- Serum creatinine [6]: 3.2 mg/dL
- Potassium [6]: 4.0 mmol/L
- Hematocrit [6]: 35.9%
- BUN [7]: 42 mg/dL
- IRIS Stage (based on the creatinine level) [7]: 3
- Owner assessment - quality of life [7]: good
- Owner assessment of the appetite [7]: normal
- Owner assessment of the drinking behavior [7]: normal
- Systolic blood pressure [7]: 130.7 mmHg
- Phosphorus [7]: 1.3 mmol/L
- Serum creatinine [7]: 3.3 mg/dL
- Potassium [7]: 4.4 mmol/L
- Hematocrit [7]: 32.6%
- UPC [7]: 0.2
- BUN [8]: 43 mg/dL
- IRIS Stage (based on the creatinine level) [8]: 3
- Owner assessment - quality of life [8]: good
- Owner assessment of the appetite [8]: normal
- Owner assessment of the drinking behavior [8]: normal
- Systolic blood pressure [8]: 130.7 mmHg
- Phosphorus [8]: 1.3 mmol/L
- Serum creatinine [8]: 3.2 mg/dL
- Potassium [8]: 3.9 mmol/L
- Hematocrit [8]: 28.9%
- BUN [9]: 41 mg/dL
- IRIS Stage (based on the creatinine level) [9]: 3
- Owner assessment - quality of life [9]: very good
- Owner assessment of the appetite [9]: normal
- Owner assessment of the drinking behavior [9]: excessive
- Systolic blood pressure [9]: 139.3 mmHg
- Phosphorus [9]: 1.2 mmol/L
- Serum creatinine [9]: 2.9 mg/dL
- Potassium [9]: 4.4 mmol/L
- Hematocrit [9]: 37.6%
- UPC [9]: 0.1
- evaluated clinical signs [10]: no worsening of the evaluated clinical signs
- laboratory parameters [10]: stable laboratory parameters
- reported events [10]: Tooth pain, anorexia and feline odontoclastic-resorptive lesions (FORL) were reported
- adverse events [11]: No adverse event was reported
- expected glucosuric effect [11]: confirmed
- Drinking behavior according to owner's assessment (course) [12]: improved from excessive to normal
- condition (clinical signs and biochemical parameters) [12]: stabilization of the condition
- course of serum creatinine concentration [12]: remained stable
- serum potassium and phosphate levels [12]: remained in the reference range
- total urine protein and UPC ratio [12]: remained within the reference range
- BUN [13]: 65 mg/dL
- IRIS Stage (based on creatinine level) [13]: 2
- Owner assessment - quality of life [13]: good
- Owner assessment of the appetite [13]: poor
- Owner assessment of the drinking behavior [13]: normal
